Results published in patent US12521397B2, “Nucleotide analogs” (The Regents of the University of California, priority 2014, dated 2026).
Like-named read-outs stand apart in the source and are kept apart here.

Key:
HPV-11 = test: Low risk HPV origin plasmid replication assay (qPCR) in HEK 293 cells; type: cell-based, human papillomavirus
Protocol: (§1) An origin-containing low risk or high risk HPV plasmid was co-transfected with homologous E1 and E2 protein expression vectors into HEK 293 cells. At 4 h post-transfection, cells were treated with test compound dilutions and then incubated for 48 h. HPV origin plasmid replication was detected after digestion with DpnI and exonuclease III to remove unreplicated transfected plasmids. Remaining replicated DNA was quantified by quantitative real time PCR (qPCR). In a parallel experiment in uninfected cells cytotoxicity was determined by trypan blue exclusion or CELLTITER-GLO® to find the concentration that reduced viable cell number by 50% (CC50). CC50 values were determined by trypan blue exclusion or CELLTITER-GLO® and the selectivity index calculated (Selectivity index=CC50/EC50). The low risk HPV tested was HPV-11, and the high-risk HPV tested was HPV-16 and HPV-18.

HPV-16 and HPV-18 = test: High risk HPV origin plasmid replication assay (qPCR) in HEK 293 cells; type: cell-based, human papillomavirus; details: read-out: High Risk (EC50)
Protocol: as §1

HEK-293 cells = test: Cytotoxicity assay in HEK-293 cells (trypan blue exclusion or CellTiter-Glo); type: cell-based
Protocol: as §1
Cytotoxicity Assays in HEK-293 cells. Cytotoxicity assays are performed in concurrently with every antiviral assay using the same cell line and media to ensure the same compound exposure. For the antiviral studies against HPV11 in HEK-293 cells, transfected cells are seeded in duplicate plates. […] At 48 h following compound addition, CELLTITER-GLO® (Promega) is added to each well and luminescence is determined on a luminometer. […]

[1] = test system: human foreskin fibroblast (HFF) cells; test: Cytotoxicity assay in primary human foreskin fibroblast cells (CellTiter-Glo); type: cell-based; details: 7d incubation
Protocol: Cytotoxicity Assays in Primary Human Foreskin Fibroblast Cells. Cytotoxicity was also evaluated in human foreskin fibroblast (HFF) cells as they are a highly sensitive indicator of toxicity in a standard assay with 7 d of compound exposure. A total of 4000 cells/well are seeded in 384-well plates in cell culture media containing 2% fetal bovine serum and antibiotics. Following a 24 h incubation, 5-fold compound dilutions are performed in duplicate wells directly in the plates containing monolayers of HFF cells. At 7 d following compound addition, CellTiter-Glo reagent is added to each well and resulting luminescence is measured on a luminometer to assess the number of viable cells in each well. Data are then used to calculate CC50 values.

[2] = low risk HPV tested was HPV-11, HEK 293 cells, 48 h incubation, read-out: Low Risk (EC50)

SMILES: Nc1nc2c(ncn2CCOCP(=O)(O)O)c(=O)[nH]1 [PMEG, 9-(2-phosphonylmethoxyethyl) guanine, reference compound]
- EC50 (HPV-11; [2]): 3 to 30 µM

SMILES: CCCCCCCCCCCCCCCCCCOCC(COP(=O)(O)COCCn1cnc2c(=O)[nH]c(N)nc21)OCc1ccccc1 (stereo not shown) [ODBG-PMEG, 1-O-Octadecyl-2-O-benzyl-sn-glyceryl PMEG]
- EC50 (HPV-11; Human papillomavirus, HEK293, low risk HPV tested was HPV-11, HEK 293 cells, 48 h incubation, read-out: Low Risk (EC50)): 0.3 to 3 µM
- EC50 (HPV-16 and HPV-18; Human papillomavirus, HEK293, 48 h): 0.3 to 3 µM

SMILES: CCCCCCCCCCCCCCCCCCOCCOP(=O)(O)COCCn1cnc2c(=O)[nH]c(N)nc21 [ODE-PMEG, Octadecyloxyethyl-Phosphonomethoxyethylguanine]
- EC50 (HPV-11; [2]): < 0.3 µM
- EC50 (HPV-16 and HPV-18; high-risk HPV tested was HPV-16 and HPV-18, HEK 293 cells, 48 h incubation): < 0.3 µM

SMILES: CCOC(=O)[C@H](C)NP(=O)(COCCn1cnc2c(=O)[nH]c(N)nc21)Oc1ccccc1 (stereo partly shown) [PMEG phenoxy amidate Example 10]
- EC50 (HPV-11; Human papillomavirus, HEK293): 7.56 ± 0.63 µM
- EC90 (HPV-11; Human papillomavirus, HEK293): > 100 µM
- CC50 (HEK-293 cells; CellTiter-Glo, 2d incubation, read-out: Cytotoxicity CC50, HEK 293 (2d incubation)): > 100 µM
- CC50 (HEK-293 cells; Table B, HEK-293 cells, parallel to HPV-11 antiviral assay, read-out: CC50): > 100 µM
- CC50 [1]: 70.9 ± 4.07 µM
